We go through 26 molecules from patent US12030877B2, “Prostaglandin E synthase inhibitors and methods for utilizing the same” (University of Kentucky Research Foundation, priority 2016, dated 2024).

Like-named read-outs stand apart in the source and are kept apart here.

One may read the IC50 as the point on the concentration scale where inhibition reaches its midpoint. As a reminder, the inhibition is the change of the read-out against control, counted positive when it falls.

For test [1], the target named is T1, mPGES-1 (Homo sapiens, UniProt O14684).
T1 sequence (O14684 1-152): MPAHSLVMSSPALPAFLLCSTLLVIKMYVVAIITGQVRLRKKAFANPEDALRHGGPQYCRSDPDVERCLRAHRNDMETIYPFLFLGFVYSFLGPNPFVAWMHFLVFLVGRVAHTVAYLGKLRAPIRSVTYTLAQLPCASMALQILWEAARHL
As to conditions: background, cited from earlier work.

The target in a further test is T2, mPGES-1 Mouse enzyme (Mus musculus, UniProt Q9JM51).
T2 construct: made in house; host or cells: FreeStyle 293-F cells, crude microsomal preparation
T2 sequence (Q9JM51 1-153): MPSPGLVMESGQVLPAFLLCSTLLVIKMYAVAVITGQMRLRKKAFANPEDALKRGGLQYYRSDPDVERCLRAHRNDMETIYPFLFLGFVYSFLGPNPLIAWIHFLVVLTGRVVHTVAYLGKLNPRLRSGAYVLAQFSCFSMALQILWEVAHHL
The experiment in a line: mPGES-1 enzyme activity assay (PGE2 enzyme immunoassay), mouse enzyme. As to conditions: for inhibition at 10 µM: compound at a concentration of 10 μM, read-out: % inhibition of the compound against mPGES-1, Mouse enzyme; for IC50: recombinant microsomal enzyme, means ± SD, triplicate. Type of test: biochemical. An outline of the steps:
(§1)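 Read-out: PGE2 by enzyme immunoassay, minus non-enzymatic PGH2 conversion in enzyme-free buffer, with IC50 calculated. Reactions ran 30 s on 1 μM PGH2 (stopped with SnCl2), after compound had been preincubated 15 min at room temperature with 293-F-expressed microsomal enzyme in pH 7.2 phosphate with GSH.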

Test [2] has as its target T1, mPGES-1. The experiment in a line: mPGES-1 enzyme activity assay (PGE2 enzyme immunoassay), human enzyme. Type of test: biochemical. Set-up: made in house; host or cells: FreeStyle 293-F cells, crude microsomal preparation. The settings on record: recombinant microsomal enzyme, means ± SD, triplicate. The method in brief: as §1
Where [3] appears, read: read-out: IC50 against mPGES-1, Human enzyme.
[4] abbreviates: IC50 against mPGES-1, Mouse enzyme.
The mark [5] stands for this setting: IC50 against mPGES-1, Human enzyme.
Setting [6] is: read-out: IC50 against mPGES-1, Mouse enzyme.

Take `CCCCC/C=C\C\C=C/C=C/C=C/[C@@H](SC[C@H](NC(=O)CC[C@H](N)C(=O)O)C(=O)NCC(=O)O)[C@@H](O)CCCC(=O)O` [Leukotriene C4]: on mPGES-1 [1] (literature ref 20, probably competing with glutathione), the “IC50 for inhibition of mPGES-1 (in words)” value is reported as “micromolar”.

As for `CSc1ccc(/C=C2/C(C)=C(CC(=O)O)c3cc(F)ccc32)cc1`, the IC50 on mPGES-1 [1] (literature refs 20-22, read-out: IC50 for inhibition of mPGES-1) is 80000 nM.

Turning to `CCCCCCCCOc1ccc(-c2nn(-c3ccc(Cl)cc3)cc2/C=C(/C#N)C(=O)O)cc1` [VII-17], the inhibition at 10 µM at mPGES-1 Mouse enzyme worked out at 29%. At mPGES-1 [2] (setting [3]), the 50% inhibitory concentration (IC50) amounted to 90 ± 15 nM.

On to `O=C1NC(=O)C(Cc2ccc(OCCCCC3CCCCC3)c(Br)c2)C(=O)N1` [Compound I-43], for which the values for the IC50 on mPGES-1 Mouse enzyme (setting [4]) and at mPGES-1 [2] (setting [5]) were 1090 ± 211 nM and 97 ± 13 nM, respectively.

Regarding `CCCCCCCCCCOc1ccc(/C=C(\C#N)C(=O)O)cc1OC` [Compound V-27], the half-inhibitory concentration (IC50) at mPGES-1 Mouse enzyme (setting [6]) was 390 ± 84 nM; at mPGES-1 [2] (setting [3]), 51 ± 10 nM.

As to `O=C1NC(=O)C(Cc2ccc(OCCCCC3CCCCC3)c(Cl)c2)C(=O)N1` [Compound I-42], the IC50 turned out to be 1330 ± 151 nM on mPGES-1 Mouse enzyme (setting [4]) and 133 ± 20 nM on mPGES-1 [2] (setting [5]).

Regarding `CCCCOc1ccc(-c2nn(-c3ccc(Cl)cc3)cc2C=C2C(=O)NC(=O)NC2=O)cc1` [VI-03], the IC50 at mPGES-1 Mouse enzyme (setting [4]) came to 357 ± 75 nM; at mPGES-1 [2] (setting [3]) it was 169 ± 41 nM.

`O=C1NC(=O)C(=Cc2ccc(OCCCCC3CCCCC3)c3ccccc23)C(=O)N1` [Compound I-17]: the IC50 at mPGES-1 Mouse enzyme (setting [4]) stood at 3700 ± 562 nM; at mPGES-1 [2] (setting [5]), 171 ± 34 nM.

`CCCCOc1ccc(-c2nn(-c3ccccc3)cc2C=C2C(=O)NC(=S)NC2=O)cc1` [VI-11]: the results for the IC50 on mPGES-1 Mouse enzyme (setting [4]) and on mPGES-1 [2] (setting [3]) were 1260 ± 138 nM and 92 ± 20 nM, respectively.

For the molecule `O=C(O)CN1C(=O)S/C(=C2\C(=O)N(CC3CCCCC3)c3ccccc32)C1=O` [II-06], the IC50 at mPGES-1 Mouse enzyme (setting [6]) was 2730 ± 422 nM; at mPGES-1 [2] (setting [3]), 1270 ± 104 nM.

Turning to `Cc1cc(C=C2C(=O)NC(=O)NC2=O)ccc1OCCCCC1CCCCC1` [Compound I-04], the inhibition at 10 µM on mPGES-1 Mouse enzyme was 25%. Moreover, the IC50 at mPGES-1 [2] (setting [5]) was 82 ± 10 nM.

Turning to `CCCCCCCCCN1C(=O)/C(=C2\SC(=O)N(CC(=O)O)C2=O)c2ccccc21` [II-16], the IC50 at mPGES-1 Mouse enzyme (setting [6]) worked out at 1400 ± 217 nM; at mPGES-1 [2] (setting [3]) it was 199 ± 32 nM.

In the case of `CN1C(=O)C(=Cc2ccc(OCCCC3CCCCC3)c(Br)c2)C(=O)N(C)C1=O` [Compound I-28], the inhibition at 10 µM on mPGES-1 Mouse enzyme was 30%. For the same molecule, the IC50 at mPGES-1 [2] (setting [5]) is 127 ± 14 nM.

For `O=C1NC(=S)S/C1=C1\C(=O)N(CCCC2CCCCC2)c2ccccc21` [II-29], the inhibition at 10 µM at mPGES-1 Mouse enzyme amounted to 29%. Also, at mPGES-1 [2] (setting [3]), the half-inhibitory concentration (IC50) is 1260 ± 335 nM.

For `O=C(O)CN1C(=O)/C(=C2\SC(=S)NC2=O)c2ccccc21` [II-30], the inhibition at 10 µM at mPGES-1 Mouse enzyme was determined as 6.1%. Further, the concentration for half-maximal inhibition (IC50) on mPGES-1 [2] (setting [3]) came to 211 ± 67 nM.

For the molecule `CCCCCCOc1ccc(C=C(C#N)C#N)cc1[N+](=O)[O-]` [Compound V-04], the values for the IC50 on mPGES-1 Mouse enzyme (setting [6]) and at mPGES-1 [2] (setting [3]) were 754 ± 73 nM and 285 ± 40 nM, respectively.

For `CCCCCCCCCCOc1ccc(-c2nn(-c3ccccc3)cc2/C=C(/C#N)C(=O)O)cc1` [VII-18], the inhibition at 10 µM at mPGES-1 Mouse enzyme is 4.3%. In addition, the IC50 on mPGES-1 [2] (setting [3]) is 197 ± 32 nM.

Regarding `O=C(O)CN1C(=O)S/C(=C2\C(=O)N(CCCOc3ccc4ccccc4c3)c3ccccc32)C1=O` [II-11], the concentration for half-maximal inhibition (IC50) on mPGES-1 Mouse enzyme (setting [6]) amounted to 1020 ± 131 nM; at mPGES-1 [2] (setting [3]), 1680 ± 168 nM.

In the case of `O=C1NC(=O)C(=Cc2ccc(OCCCC3CCCCC3)c([N+](=O)[O-])c2)C(=O)N1` [Compound I-26], the figures for the half-inhibitory concentration (IC50) on mPGES-1 Mouse enzyme (setting [4]) and on mPGES-1 [2] (setting [5]) were 373 ± 51 nM and 156 ± 30 nM, respectively.

For `CCCCCCCN1C(=O)/C(=C2\SC(=O)N(CC(=O)O)C2=O)c2ccccc21` [II-14], the inhibition at 10 µM on mPGES-1 Mouse enzyme is 67%. Also, the IC50 on mPGES-1 [2] (setting [3]) amounted to 324 ± 44 nM.

Consider `O=C(O)CN1C(=O)S/C(=C2\C(=O)N(CCC3CCCCC3)c3ccccc32)C1=O` [II-07], for which, at mPGES-1 Mouse enzyme, the inhibition at 10 µM worked out at 39%. On mPGES-1 [2] (setting [3]), the IC50 amounted to 494 ± 32 nM.

Regarding `O=C(O)CN1C(=O)S/C(=C2\C(=O)N(CCC3CCCCC3)c3ccc(-c4ccccc4)cc32)C1=O` [II-24], the IC50 on mPGES-1 Mouse enzyme (setting [6]) worked out at 777 ± 364 nM; on mPGES-1 [2] (setting [3]), 32 ± 6 nM.

Consider `CCCCCCCCCCOc1ccc(-c2nn(-c3ccccc3)cc2C=C2C(=O)NC(=O)NC2=O)cc1` [VI-07], for which the inhibition at 10 µM at mPGES-1 Mouse enzyme was found to be 21%. The concentration for half-maximal inhibition (IC50) on mPGES-1 [2] (setting [5]) turned out to be 375 ± 127 nM.

Consider `O=C(O)CN1C(=O)/C(=C2\SC(=O)N(CCCCc3ccccc3)C2=O)c2ccccc21` [II-31], for which the inhibition at 10 µM on mPGES-1 Mouse enzyme came to 64%. Also, the IC50 at mPGES-1 [2] (setting [3]) worked out at 962 ± 159 nM.

In the case of `O=C(O)CN1C(=O)S/C(=C2\C(=O)N(CCCOc3ccccc3)c3ccccc32)C1=O` [II-10], the inhibition at 10 µM at mPGES-1 Mouse enzyme was 41%. In addition, the IC50 on mPGES-1 [2] (setting [3]) worked out at 805 ± 100 nM.

Consider `O=C1NC(=O)C(=Cc2ccc(OCCCCC3CCCCC3)cc2)C(=O)N1` [Compound I-01], for which the IC50 on mPGES-1 Mouse enzyme (setting [4]) stood at 7080 ± 627 nM; at mPGES-1 [2] (setting [3]) it was 622 ± 121 nM.
